≈ marks a conversion by molar mass, not a printed value.
Key:
Type in all cases: cell-based
[1] = system: Mannheimia haemolytica MH 6357 (M7/2, reference strain, cattle infection strain); assay: MIC, broth-microdilution (CLSI VET01-A4), strain MH 6357; settings: Mannheimia haemolytica strain MH 6357, broth-microdilution; unit assumed
Summary of the method: (§1)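 Two-fold serial dilutions of each compound were prepared, bacteria were grown in them, and plates were then inspected visually. No turbidity at the lowest concentration defined the MIC.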

[2] = system: Mannheimia haemolytica MH 6374 (ATCC 33396, reference strain); assay: MIC, broth-microdilution (CLSI VET01-A4), strain MH 6374; settings: Mannheimia haemolytica strain MH 6374, broth-microdilution; unit assumed
Summary of the method: as §1

[3] = system: Mannheimia haemolytica MH 10720 (154, BRD field isolate); assay: MIC, broth-microdilution (CLSI VET01-A4), strain MH 10720; settings: Mannheimia haemolytica strain MH 10720, broth-microdilution; unit assumed
Summary of the method: as §1

[4] = system: Mannheimia haemolytica MH 12587 (1071, BRD field isolate, macrolide-resistance: erm+, E+); assay: MIC, broth-microdilution (CLSI VET01-A4), strain MH 12587; settings: Mannheimia haemolytica strain MH 12587, broth-microdilution; unit assumed
Summary of the method: as §1

[5] = system: Mannheimia haemolytica MH 13065 (XB0446-6003.9, BRD field isolate); assay: MIC, broth-microdilution (CLSI VET01-A4), strain MH 13065; settings: Mannheimia haemolytica strain MH 13065, broth-microdilution; unit assumed
Summary of the method: as §1

[6] = system: Mannheimia haemolytica MH 13093 (XB0472-6014.1, BRD field isolate); assay: MIC, broth-microdilution (CLSI VET01-A4), strain MH 13093; settings: Mannheimia haemolytica strain MH 13093, broth-microdilution; unit assumed
Summary of the method: as §1

[7] = system: Pasteurella multocida PM 6267 (P 2225 (L386), reference strain, mouse infection strain); assay: MIC, broth-microdilution (CLSI VET01-A4), strain PM 6267; settings: Pasteurella multocida strain PM 6267, broth-microdilution; unit assumed
Summary of the method: as §1

[8] = system: Pasteurella multocida PM 6391 (ATCC 43137, reference strain); assay: MIC, broth-microdilution (CLSI VET01-A4), strain PM 6391; settings: Pasteurella multocida strain PM 6391, broth-microdilution; unit assumed
Summary of the method: as §1

[9] = system: Pasteurella multocida PM 10775 (080130003051, BRD field isolate); assay: MIC, broth-microdilution (CLSI VET01-A4), strain PM 10775; settings: Pasteurella multocida strain PM 10775, broth-microdilution; unit assumed
Summary of the method: as §1

[10] = system: Pasteurella multocida PM 12080 (IV102277-0093, BRD field isolate); assay: MIC, broth-microdilution (CLSI VET01-A4), strain PM 12080; settings: Pasteurella multocida strain PM 12080, broth-microdilution; unit assumed
Summary of the method: as §1

MIC PM 6267 [7] [µg/mL]	MIC PM 6391 [8] [µg/mL]	MIC PM 10775 [9] [µg/mL]	MIC PM 12080 [10] [µg/mL]	Structure (SMILES)	MIC MH 6357 [1] [µg/mL]	MIC MH 6374 [2] [µg/mL]	MIC MH 10720 [3] [µg/mL]	MIC MH 12587 [4] [µg/mL]	MIC MH 13065 [5] [µg/mL]	MIC MH 13093 [6] [µg/mL]
0.8 (≈ 1.77 µM)	3.1 (≈ 6.86 µM)	≤ 0.1	1.6 (≈ 3.54 µM)	CC[C@H](C)[C@H](NC(=O)c1ccc(C#Cc2ccc(CNCCCOC)cc2)cc1)C(=O)NO [Compound 177]	3.1 (≈ 6.86 µM)	6.3 (≈ 14 µM)	1.6 (≈ 3.54 µM)	12.5 (≈ 27.7 µM)	6.3 (≈ 14 µM)	6.3 (≈ 14 µM)
0.2 (≈ 0.443 µM)	0.8 (≈ 1.77 µM)	≤ 0.1	0.4 (≈ 0.886 µM)	CC[C@H](C)[C@H](NC(=O)c1ccc(C#Cc2ccc(CN(C)CCOC)cc2)cc1)C(=O)NO [Compound 178]	1.6 (≈ 3.54 µM)	3.1 (≈ 6.86 µM)	0.8 (≈ 1.77 µM)	6.3 (≈ 14 µM)	1.6 (≈ 3.54 µM)	3.1 (≈ 6.86 µM)
0.2 (≈ 0.425 µM)	1.6 (≈ 3.4 µM)	≤ 0.1	0.4 (≈ 0.85 µM)	CC[C@H](C)[C@H](NC(=O)c1ccc(C#Cc2ccc(CNCc3cccnc3)cc2)cc1)C(=O)NO [Compound 179]	0.4 (≈ 0.85 µM)	0.8 (≈ 1.7 µM)	≤ 0.1	1.6 (≈ 3.4 µM)	0.8 (≈ 1.7 µM)	0.8 (≈ 1.7 µM)
0.4 (≈ 0.85 µM)	1.6 (≈ 3.4 µM)	≤ 0.1	0.8 (≈ 1.7 µM)	CC[C@H](C)[C@H](NC(=O)c1ccc(C#Cc2ccc(CNCc3ccccn3)cc2)cc1)C(=O)NO [Compound 180]	0.8 (≈ 1.7 µM)	1.6 (≈ 3.4 µM)	0.2 (≈ 0.425 µM)	3.1 (≈ 6.59 µM)	1.6 (≈ 3.4 µM)	1.6 (≈ 3.4 µM)
0.4 (≈ 0.87 µM)	0.8 (≈ 1.74 µM)	≤ 0.1	0.4 (≈ 0.87 µM)	CC[C@H](C)[C@H](NC(=O)c1ccc(C#Cc2ccc(CNCc3ccco3)cc2)cc1)C(=O)NO [Compound 181]	0.4 (≈ 0.87 µM)	0.8 (≈ 1.74 µM)	≤ 0.1	1.6 (≈ 3.48 µM)	0.8 (≈ 1.74 µM)	0.8 (≈ 1.74 µM)
0.2 (≈ 0.421 µM)	0.8 (≈ 1.68 µM)	≤ 0.1	0.2 (≈ 0.421 µM)	CC[C@H](C)[C@H](NC(=O)c1ccc(C#Cc2ccc(CNCc3cccs3)cc2)cc1)C(=O)NO [Compound 182]	0.4 (≈ 0.841 µM)	1.6 (≈ 3.36 µM)	0.2 (≈ 0.421 µM)	1.6 (≈ 3.36 µM)	0.8 (≈ 1.68 µM)	0.8 (≈ 1.68 µM)
0.4 (≈ 0.863 µM)	1.6 (≈ 3.45 µM)	≤ 0.1	0.8 (≈ 1.73 µM)	CC[C@H](C)[C@H](NC(=O)c1ccc(C#Cc2ccc(CNCC3CCCO3)cc2)cc1)C(=O)NO (stereo partly shown) [Compound 183]	1.6 (≈ 3.45 µM)	3.1 (≈ 6.69 µM)	0.8 (≈ 1.73 µM)	1.6 (≈ 3.45 µM)	3.1 (≈ 6.69 µM)	3.1 (≈ 6.69 µM)
0.4 (≈ 0.87 µM)	3.1 (≈ 6.75 µM)	≤ 0.1	1.6 (≈ 3.48 µM)	CC[C@H](C)[C@H](NC(=O)c1ccc(C#Cc2ccc(CNCc3ncc[nH]3)cc2)cc1)C(=O)NO [Compound 184]	12.5 (≈ 27.2 µM)	6.3 (≈ 13.7 µM)	0.8 (≈ 1.74 µM)	12.5 (≈ 27.2 µM)	6.3 (≈ 13.7 µM)	6.3 (≈ 13.7 µM)
≤ 0.1	0.8 (≈ 1.77 µM)	≤ 0.1	0.4 (≈ 0.886 µM)	CC[C@H](C)[C@H](NC(=O)c1ccc(C#Cc2ccc(CNC(C)COC)cc2)cc1)C(=O)NO (stereo partly shown) [Compound 185]	3.1 (≈ 6.86 µM)	6.3 (≈ 14 µM)	0.8 (≈ 1.77 µM)	6.3 (≈ 14 µM)	3.1 (≈ 6.86 µM)	6.3 (≈ 14 µM)
≤ 0.1	0.4 (≈ 0.863 µM)	≤ 0.1	0.2 (≈ 0.431 µM)	CC[C@H](C)[C@H](NC(=O)c1ccc(C#Cc2ccc(CN3CCCOCC3)cc2)cc1)C(=O)NO [Compound 186]	1.6 (≈ 3.45 µM)	6.3 (≈ 13.6 µM)	1.6 (≈ 3.45 µM)	6.3 (≈ 13.6 µM)	3.1 (≈ 6.69 µM)	3.1 (≈ 6.69 µM)
0.4 (≈ 0.894 µM)	1.6 (≈ 3.57 µM)	≤ 0.1	0.8 (≈ 1.79 µM)	CC[C@H](C)[C@H](NC(=O)c1ccc(C#Cc2ccc(CN3CCCCC3)cc2)cc1)C(=O)NO [Compound 187]	3.1 (≈ 6.93 µM)	12.5 (≈ 27.9 µM)	1.6 (≈ 3.57 µM)	12.5 (≈ 27.9 µM)	6.3 (≈ 14.1 µM)	6.3 (≈ 14.1 µM)
≤ 0.1	0.4 (≈ 0.792 µM)	≤ 0.1	0.2 (≈ 0.396 µM)	CC[C@H](C)[C@H](NC(=O)c1ccc(C#Cc2ccc(CNCc3ccnc(Cl)c3)cc2)cc1)C(=O)NO [Compound 190]	1.6 (≈ 3.17 µM)	3.1 (≈ 6.14 µM)	0.4 (≈ 0.792 µM)	3.1 (≈ 6.14 µM)	1.6 (≈ 3.17 µM)	1.6 (≈ 3.17 µM)
≤ 0.1	≤ 0.1	≤ 0.1	≤ 0.1	CC[C@H](C)[C@H](NC(=O)c1ccc(C#Cc2ccc(CN3CC(C)OC(C)C3)cc2)cc1)C(=O)NO (stereo partly shown) [Compound 191]	6.3 (≈ 13.2 µM)	25 (≈ 52.3 µM)	1.6 (≈ 3.35 µM)	25 (≈ 52.3 µM)	6.3 (≈ 13.2 µM)	12.5 (≈ 26.2 µM)
0.4 (≈ 0.949 µM)	0.8 (≈ 1.9 µM)	≤ 0.1	0.4 (≈ 0.949 µM)	CCCNCc1ccc(C#Cc2ccc(C(=O)N[C@H](C(=O)NO)[C@@H](C)CC)cc2)cc1 [Compound 193]	6.3 (≈ 14.9 µM)	6.3 (≈ 14.9 µM)	0.8 (≈ 1.9 µM)	6.3 (≈ 14.9 µM)	3.1 (≈ 7.35 µM)	3.1 (≈ 7.35 µM)
0.2 (≈ 0.433 µM)	0.8 (≈ 1.73 µM)	≤ 0.1	0.4 (≈ 0.867 µM)	CC[C@H](C)[C@H](NC(=O)c1ccc(C#Cc2ccc(CNC3CCCCC3)cc2)cc1)C(=O)NO [Compound 195]	6.3 (≈ 13.6 µM)	12.5 (≈ 27.1 µM)	1.6 (≈ 3.47 µM)	12.5 (≈ 27.1 µM)	6.3 (≈ 13.6 µM)	12.5 (≈ 27.1 µM)
0.2 (≈ 0.447 µM)	0.8 (≈ 1.79 µM)	≤ 0.1	0.4 (≈ 0.894 µM)	CC[C@H](C)[C@H](NC(=O)c1ccc(C#Cc2ccc(CNC3CCCC3)cc2)cc1)C(=O)NO [Compound 196]	6.3 (≈ 14.1 µM)	12.5 (≈ 27.9 µM)	1.6 (≈ 3.57 µM)	12.5 (≈ 27.9 µM)	6.3 (≈ 14.1 µM)	12.5 (≈ 27.9 µM)
≤ 0.1	0.4 (≈ 0.923 µM)	≤ 0.1	0.2 (≈ 0.461 µM)	CC[C@H](C)[C@H](NC(=O)c1ccc(C#Cc2ccc(CNC3CCC3)cc2)cc1)C(=O)NO [Compound 197]	1.6 (≈ 3.69 µM)	3.1 (≈ 7.15 µM)	0.4 (≈ 0.923 µM)	6.3 (≈ 14.5 µM)	1.6 (≈ 3.69 µM)	3.1 (≈ 7.15 µM)
≤ 0.1	0.4 (≈ 0.914 µM)	≤ 0.1	0.2 (≈ 0.457 µM)	COCC(C)NCc1ccc(C#Cc2ccc(C(=O)N[C@H](C(=O)NO)C(C)C)cc2)cc1 (stereo partly shown) [Compound 198]	3.1 (≈ 7.09 µM)	6.3 (≈ 14.4 µM)	0.8 (≈ 1.83 µM)	12.5 (≈ 28.6 µM)	3.1 (≈ 7.09 µM)	6.3 (≈ 14.4 µM)
≤ 0.1	≤ 0.1	≤ 0.1	≤ 0.1	CC(C)[C@H](NC(=O)c1ccc(C#Cc2ccc(CNCc3nccs3)cc2)cc1)C(=O)NO [Compound 199]	0.2 (≈ 0.432 µM)	0.4 (≈ 0.865 µM)	≤ 0.1	0.4 (≈ 0.865 µM)	0.2 (≈ 0.432 µM)	0.4 (≈ 0.865 µM)
≤ 0.1	0.2 (≈ 0.445 µM)	≤ 0.1	0.2 (≈ 0.445 µM)	CC(C)[C@H](NC(=O)c1ccc(C#Cc2ccc(CNCC3CCCO3)cc2)cc1)C(=O)NO (stereo partly shown) [Compound 200]	6.3 (≈ 14 µM)	3.1 (≈ 6.9 µM)	0.8 (≈ 1.78 µM)	6.3 (≈ 14 µM)	1.6 (≈ 3.56 µM)	3.1 (≈ 6.9 µM)
0.4 (≈ 1.02 µM)	0.8 (≈ 2.03 µM)	≤ 0.1	0.4 (≈ 1.02 µM)	CCNCc1ccc(C#Cc2ccc(C(=O)N[C@H](C(=O)NO)C(C)C)cc2)cc1 [Compound 201]	12.5 (≈ 31.8 µM)	6.3 (≈ 16 µM)	3.1 (≈ 7.88 µM)	12.5 (≈ 31.8 µM)	6.3 (≈ 16 µM)	6.3 (≈ 16 µM)
0.2 (≈ 0.457 µM)	0.4 (≈ 0.914 µM)	≤ 0.1	0.4 (≈ 0.914 µM)	COCCCNCc1ccc(C#Cc2ccc(C(=O)N[C@H](C(=O)NO)C(C)C)cc2)cc1 [Compound 205]	1.6 (≈ 3.66 µM)	3.1 (≈ 7.09 µM)	0.8 (≈ 1.83 µM)	6.3 (≈ 14.4 µM)	1.6 (≈ 3.66 µM)	3.1 (≈ 7.09 µM)
